# Test results: patent US6812034B2, “Fetuin-MGP-mineral complex in serum assayed to determine calcification risk” (The Regents of the University of California, priority 2000, dated 2004)
# Entries after “also recorded” stand apart in the source; their conditions may differ.
# Columns and labels:
# Type in all cases: in vivo, rat
# [1] = serum levels of calcium, phosphate, MGP and BGP after subcutaneous bisphosphonate
# Procedure: Rats were fed rodent diet 5001 (Purina Mills Inc., St. […] Etidronate was dissolved with 0.15 M NaCl, titrated to pH 7.4 with dilute NaOH, and administered subcutaneously to forty-day-old male rats. Control animals received injections of 0.15 M NaCl only. […] At the times indicated in FIG. 1, each rat was anesthetized with metofane and a 400 μl sample of blood was withdrawn from the jugular vein. Blood samples were allowed to clot for 15 min at room temperature and serum was obtained after centrifugation in a clinical centrifuge and then frozen rapidly on dry ice and stored at -70° C. until later analysis. The same procedure was followed for the second time course experiment (FIG. 10), with the difference that the etidronate dose was increased to 32 mg per 100 g body weight. […] Two hours later, all rats were injected with etidronate at a dose of 8 mg/100 g (t=0), and 400 μl of blood were removed from each animal at the indicated times for biochemical analyses. […] In neither control group could we detect a significant change in serum levels of calcium, phosphate, or MGP at any time point. […] Rice et al. (1994) J. Bone Min. Res. 9: 567-576). Calcium levels in serum and other samples were determined colorimetrically using cresolphthalein complexone (Sigma) and phosphate levels in serum, effluent fractions, and other samples were determined calorimetrically as described (Chen et al. (1956) Anal. Chem. 28(11): 1756-1758). For determination of ionic calcium, freshly obtained blood samples were immediately placed into a 2.5 ml gold top vacutainer tube to avoid out gassing of CO2 and the associated shift in pH. […] Electrophoresis was carried out using 4 to 20% polyacrylamide gels (Novex, Inc., San Diego, Calif.) run in Tris-glycine buffer containing SDS. Protein sequencing was carried out on bands transferred to PVDF membranes using a Procise 494 Sequencer (ABI division, PE Biosystems, Foster City, Calif.).
# [2] = weight, tibia length and serum calcium and phosphate in warfarin-treated rats; conditions: for mg Ca dl serum / mg P dl serum: 4 weeks
# Text: This procedure induces artery calcification within 2 weeks without the presence of hypercalcemia.
# [3] = system: warfarin-induced artery calcification; assay: artery calcification in rats treated with warfarin for 2 or 4 weeks; conditions: both carotid arteries
# Procedure: (§1) Tissues were subsequently washed extensively with buffer and extracted with 1 ml of 10% formic acid for 24 h at room temperature, as described. Calcium levels in serum were determined colorimetrically using cresolphthalein complexone (Sigma) and phosphate levels in serum and in acid tissue extracts were determined calorimetrically as described (Zhu et al. (1994) Cardiology, 85: 370-377). Tissue sectioning and staining were carried out by Biomedical Testing Services, Inc., (San Diego, Calif.). The effect of bisphosphonates on artery calcification was also examined in rats treated with warfarin alone using procedures which have been described elsewhere (Price et al. (1998) Arterioscler. Thromb. Vasc. Biol. 18: 1400-1407).
# [4] = serum levels of calcium and phosphate in rats treated with vitamin D plus warfarin; conditions: 84 h; for reduction of serum phosphate: two highest doses
# Procedure: For measurement of mineral accumulation in arteries, each tissue was removed within 30 minutes of death and immediately frozen. Tissues were subsequently washed extensively with buffer and extracted with 1 ml of 10% formic acid for 24 h at room temperature, as described. Calcium levels in serum were determined colorimetrically using cresolphthalein complexone (Sigma) and phosphate levels in serum and in acid tissue extracts were determined calorimetrically as described (Zhu et al. (1994) Cardiology, 85: 370-377). Tissue sectioning and staining were carried out by Biomedical Testing Services, Inc., (San Diego, Calif.). […]
# [5] = system: aorta calcification in rats treated with vitamin D plus warfarin; assay: von Kossa staining for calcification in rats treated with vitamin D plus warfarin; conditions: for Histology Score Observer #1 x ± S.D. / Histology Score Observer #2 x ± S.D.: 84 h; for dose that completely eliminated von Kossa staining for mineral in the abdominal aorta: 84 h after first vitamin D
# Procedure: For measurement of mineral accumulation in arteries, each tissue was removed within 30 minutes of death and immediately frozen. Tissues were subsequently washed extensively with buffer and extracted with 1 ml of 10% formic acid for 24 h at room temperature, as described. Calcium levels in serum were determined colorimetrically using cresolphthalein complexone (Sigma) and phosphate levels in serum and in acid tissue extracts were determined calorimetrically as described (Zhu et al. (1994) Cardiology, 85: 370-377). Tissue sectioning and staining were carried out by Biomedical Testing Services, Inc., (San Diego, Calif.).
# Male Sprague Dawley rats were fed ad libitum with rodent diet 5001 (Purina Mills Inc., St. Louis, Mo.), a diet that is 0.67% phosphorus and 0.95% calcium by weight. This diet contains 500 μg per kg of phylloquinone and has no added menadione. In all experiments, animals were killed by exsanguination while under metofane anesthetic, and selected tissues were removed immediately and fixed in 10% buffered formalin or frozen at −20° C. for later studies. All animal experiments were approved by the UCSD animal subjects committee.
# [6] = system: vitamin D-induced artery calcification; assay: mineral phosphate accumulation in acid demineralization extracts of thoracic aorta and carotid arteries, vitamin D plus warfarin; conditions: for Artery Calcification Relative potency: relative to etidronate = 1
# Procedure: as §1, with “first” for “also”, “in which artery calcification was induced by treatment” for “treated”, “plus high doses of vitamin D. […] All animals were killed by exsanguination at 96 h. […] All animals were killed by exsanguination at 96 h after the first vitamin D dose. […] All animals were killed by exsanguination 96 h after the first vitamin D injection.” for “alone using procedures which have been described elsewhere (Price et al. (1998) Arterioscler. Thromb. Vasc. Biol. 18: 1400-1407).”
# [7] = Sephacryl S300 gel filtration of serum; conditions: serum 6 h after etidronate, concurrent warfarin
# Procedure: The serum mineral complex was characterized by gel filtration using 25 ml columns of Sephacryl S-300 HR which were prepared in disposable plastic pipets and were equilibrated with 20 mM HEPES pH 7.4, 0.15 M NaCl and 10 mM CaCl2 at room temperature. Serum was obtained from rats 6 h after administration of etidronate at a dose of 8 mg/100 g, and 1 ml aliquots were immediately applied to the Sephacryl column. Fractions of 0.5 ml were then collected and analyzed to determine the level of phosphate and MGP (see below).
# [8] = 0.025 mg P/kg/day plus warfarin
# [9] = 0.0004 mg P/kg/day sc, score 0-5
# [10] = 0.002 mg P/kg/day sc, score 0-5
# [11] = 0.010 mg P/kg/day sc, score 0-5
# [12] = 0.050 mg P/kg/day sc, score 0-5
# [13] = 0.00036 mg P/kg/day sc, score 0-5 (5 most calcified)
# [14] = 0.0018 mg P/kg/day sc, score 0-5
# [15] = 0.009 mg P/kg/day sc, score 0-5
# [16] = 0.045 mg P/kg/day sc, score 0-5
# [17] = 15.4 mg warfarin per 100 g 2 h before 8 mg/100 g etidronate
structure (smiles),measurement,setting,value
"NCCCC(O)(P(=O)(O)O)P(=O)(O)O [Alendronate, (4-amino-1-hydroxybutylidene)bis-phosphonate]","effect on serum calcium, phosphate and MGP levels","[1]; 4 mg/100 g dose, 1, 2, 6, 12 and 24 h, data not shown",no effect
same,mg Ca dl serum,[2]; [8],10.0 ± 0.1 mg/dL
same,mg P dl serum,[2]; [8],10.0 ± 0.1 mg/dL
same,mg Ca dl serum,[2]; 0.25 mg P/kg/day plus warfarin,10.8 ± 0.1 mg/dL
same,mg P dl serum,[2]; 0.25 mg P/kg/day plus warfarin,10.9 ± 0.7 mg/dL
same,effect on bone growth or weight gain,"[2]; 0.025 and 0.25 mg P/kg/day, warfarin 4 weeks",without affecting bone growth or weight gain
same,nmol PO4 Carotid,[3]; [8],374.0 ± 217.4 nmol
same,nmol PO4 Carotid,[3]; 0.25 mg P/kg/day plus warfarin,63.7 ± 43.1 nmol
same,Serum Ca,[4]; 0.0004 mg P/kg/day,13.3 ± 0.7 mg/dL
same,Serum P,[4]; 0.0004 mg P/kg/day,10.8 ± 1.2 mg/dL
same,Serum P,[4]; 0.002 mg P/kg/day,10.2 ± 0.6 mg/dL
same,Serum Ca,[4]; 0.01 mg P/kg/day,15.9 ± 0.4 mg/dL
same,Serum P,[4]; 0.01 mg P/kg/day,10.0 ± 0.9 mg/dL
same,Serum P,[4]; 0.05 mg P/kg/day,9.9 ± 0.5 mg/dL
same,Serum P,[4]; 0.25 mg P/kg/day,9.5 ± 0.7 mg/dL
same,reduction of serum phosphate,[4],about 16%
same,Histology Score Observer #1 x ± S.D.,[5]; [9],2.8 ± 1.0
same,Histology Score Observer #2 x ± S.D.,[5]; [9],3.3 ± 1.3
same,Histology Score Observer #1 x ± S.D.,[5]; [10],2.5 ± 0.6
same,Histology Score Observer #2 x ± S.D.,[5]; [10],2.0 ± 0.8
same,Histology Score Observer #1 x ± S.D.,[5]; [11],2.0 ± 1.8
same,Histology Score Observer #2 x ± S.D.,[5]; [11],2.5 ± 1.3
same,Histology Score Observer #1 x ± S.D.,[5]; [12],0.8 ± 0.5
same,Histology Score Observer #2 x ± S.D.,[5]; [12],0.4 ± 0.5
same,Histology Score Observer #1 x ± S.D.,"[5]; 0.25 mg P/kg/day sc, score 0-5",0.0 ± 0.0
same,Histology Score Observer #2 x ± S.D.,"[5]; 0.25 mg P/kg/day sc, score 0-5",0.0 ± 0.0
same,dose that completely eliminated von Kossa staining for mineral in the abdominal aorta,[5],0.25 mg P/kg/day
"CCCCCN(C)CCC(O)(P(=O)(O)O)P(=O)(O)O [Ibandronate, (1-hydroxy-3-(methylpentylamino)propylidene)bis-phosphonate]",dose required to reduce the extent of mineralization by half in the thoracic aorta,"[6]; 84 h, FIG. 3",0.0002 mg P/kg/day
same,dose required to reduce the extent of mineralization by half in the carotid artery,"[6]; 84 h, FIG. 4",0.00018 mg P/kg/day
same,Artery Calcification Dose for 50% inhibition,"[6]; daily subcutaneous dose, vitamin D-induced artery calcification, male rats initially 200 g",0.00019 mg P/kg/day
same,subcutaneous dose required for 50% inhibition of artery calcification,"[6]; rat, FIGS. 3 and 4",0.2 μg P/kg/day
same,Artery Calcification Relative potency,[6],10500
same,Artery Calcification Relative potency,[6]; listed as ibandronate,"10,500"
same,Serum Ca,[4]; 0.00036 mg P/kg/day,13.8 ± 0.6 mg/dL
same,Serum P,[4]; 0.00036 mg P/kg/day,9.9 ± 0.5 mg/dL
same,Serum Ca,[4]; 0.0018 mg P/kg/day,15.5 ± 0.9 mg/dL
same,Serum P,[4]; 0.0018 mg P/kg/day,10.3 ± 0.6 mg/dL
same,Serum Ca,[4]; 0.009 mg P/kg/day,14.9 ± 0.6 mg/dL
same,Serum P,[4]; 0.009 mg P/kg/day,10.4 ± 0.7 mg/dL
same,Serum Ca,[4]; 0.045 mg P/kg/day,15.4 ± 0.3 mg/dL
same,Serum P,[4]; 0.045 mg P/kg/day,9.9 ± 0.4 mg/dL
same,reduction of serum phosphate,[4],~11%
same,Histology Score Observer #1 x ± S.D.,[5]; [13],1.0 ± 0.8
same,Histology Score Observer #2 x ± S.D.,[5]; [13],1.0 ± 0.8
same,Histology Score Observer #1 x ± S.D.,[5]; [14],0.0 ± 0.0
same,Histology Score Observer #2 x ± S.D.,[5]; [14],0.0 ± 0.0
same,Histology Score Observer #1 x ± S.D.,[5]; [15],0.0 ± 0.0
same,Histology Score Observer #2 x ± S.D.,[5]; [15],0.0 ± 0.0
same,Histology Score Observer #1 x ± S.D.,[5]; [16],0.0 ± 0.0
same,Histology Score Observer #2 x ± S.D.,[5]; [16],0.0 ± 0.0
same,dose that completely eliminated von Kossa staining for mineral in the abdominal aorta,[5],≥ 0.0018 mg P/kg/day
CC(=O)CC(c1ccccc1)c1c(O)c2ccccc2oc1=O (centres unmarked) [warfarin],effect on the increase in serum MGP following etidronate,[1]; [17],prevents the increase in serum MGP; also recorded: blocked the increase in serum MGP
same,effect on the time course of the elevation in serum calcium and phosphate following etidronate,[1]; [17],did not affect
same,effect on serum levels of MGP,[1]; animals which did not receive etidronate,no effect
same,"MGP levels in the high molecular weight position, of the level in vitamin K-replete, etidronate treated rats",[7],5%
same,"phosphate levels in the high molecular weight, excluded volume position vs vitamin K-replete, etidronate treated rats",[7],comparable
